In the supplement of paper PMC10307832:

How the values were obtained:
Assay in all cases: relative viability (nuclei count vs DMSO), 5 days (fraction); higher = more cells survive
[1] = compound: O=C(O)C(Cc1ccccc1[N+](=O)[O-])=NNc1nc(-c2ccc(Cl)c(Cl)c2)cs1 (mixture of isomers) [4EGI-1] + O=C(CCCCCCC(=O)Nc1ccccc1)NO [Vorinostat] (partner 1 µM)
Procedure, shortened: (§1)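 Cells from lung cancer lines were seeded into 1536-well plates and, one day later, dosed by pin tool. Treatments were either a single drug or a fixed dose of an anchor drug with five library-drug doses (not always all listed) in √10 steps. After 5 days, nuclei were stained in a one-step fixation (final 0.05% Triton X-100, 1% formaldehyde, 1 ug/ml Hoechst) and counted on 4× images, and relative viability is the treated-to-vehicle nuclei ratio, as the median of duplicate plates.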

[2] = compound: CN1CCN(CC1)C2=CC(=C(C=C2)NC3=NC=C4C(=N3)N(C5=CC=CC=C5C(=O)N4C)C)OC [XMD8-85] + Cc1nc(NC(=O)N2CCC[C@H]2C(N)=O)sc1-c1ccnc(C(C)(C)C(F)(F)F)c1 [Alpelisib] (partner 2 µM)
Procedure, shortened: as §1

[3] = compound: CN1CCN(CC1)C2=CC(=C(C=C2)NC3=NC=C4C(=N3)N(C5=CC=CC=C5C(=O)N4C)C)OC [XMD8-85] + N=C(N)NC(=N)NCCc1ccccc1 [Phenformin] (partner 250 µM)
Procedure, shortened: as §1

[4] = compound: CN1CCN(CC1)C2=CC(=C(C=C2)NC3=NC=C4C(=N3)N(C5=CC=CC=C5C(=O)N4C)C)OC [XMD8-85] + CC(=O)Nc1cccc(-n2c(=O)n(C3CC3)c(=O)c3c(Nc4ccc(I)cc4F)n(C)c(=O)c(C)c32)c1 [Trametinib] (partner 0.02 µM)
Procedure, shortened: as §1

| Cell Line | relative viability ([1]; first compound 0.5 µM) | relative viability ([1]; first compound 1.581 µM) | relative viability ([1]; first compound 5 µM) | relative viability ([1]; first compound 15.81 µM) | relative viability ([1]; first compound 50 µM) | relative viability ([2]; first compound 0.08 µM) | relative viability ([2]; first compound 0.253 µM) | relative viability ([2]; first compound 0.8 µM) | relative viability ([2]; first compound 2.53 µM) | relative viability ([3]; first compound 0.08 µM) | relative viability ([3]; first compound 0.253 µM) | relative viability ([3]; first compound 0.8 µM) | relative viability ([3]; first compound 2.53 µM) | relative viability ([3]; first compound 8 µM) | relative viability ([4]; first compound 0.08 µM) | relative viability ([4]; first compound 0.253 µM) | relative viability ([4]; first compound 0.8 µM) | relative viability ([4]; first compound 2.53 µM) | relative viability ([4]; first compound 8 µM) | relative viability ([2]; first compound 8 µM) |
| --- | --- | --- | --- | --- | --- | --- | --- | --- | --- | --- | --- | --- | --- | --- | --- | --- | --- | --- | --- | --- |
| NCI-H1355 | 0.698 | 0.586 | 0.662 | 0.595 | 0.514 | 0.844 | 0.89 | 0.807 | 0.731 | 0.417 | 0.409 | 0.422 | 0.437 | 0.408 | 0.414 | 0.424 | 0.384 | 0.356 | 0.284 | – |
| NCI-H2170 | 0.936 | 0.749 | 0.842 | 0.699 | 0.585 | 0.759 | 0.812 | – | 0.816 | 0.4 | 0.431 | 0.447 | 0.41 | 0.366 | 0.848 | 0.845 | 1.03 | 1 | 0.702 | 0.495 |
| LK-2 | 0.314 | 0.174 | 0.337 | 0.354 | 0.236 | 1.16 | 1.04 | 1.12 | 1.26 | – | 0.279 | 0.377 | 0.374 | 0.213 | 0.858 | 0.611 | 0.538 | 0.448 | 0.312 | 0.694 |
| NCI-H2023 | 0.91 | – | 0.722 | 0.138 | 0.0836 | 0.488 | 0.623 | 0.66 | 0.664 | 0.347 | 0.398 | 0.422 | 0.355 | 0.327 | 0.515 | 0.535 | 0.685 | 0.557 | 0.284 | 0.334 |
| PC-14 | 0.865 | – | 0.824 | 0.0883 | 0.0654 | 0.784 | 0.882 | 0.762 | 0.993 | 0.524 | 0.66 | 0.575 | 0.611 | 0.193 | 0.733 | 0.703 | 0.756 | 0.6 | 0.306 | 0.655 |
| LXF-289 | 0.79 | 0.718 | 0.787 | 0.802 | 0.672 | 1.02 | 0.964 | 1.01 | 1.08 | 0.524 | 0.542 | 0.525 | 0.553 | – | 0.658 | 0.646 | 0.696 | 0.728 | 0.656 | 0.939 |
| NCI-H2009 | 0.798 | 0.701 | 0.822 | 0.736 | 0.375 | 1.17 | 1.03 | 1.14 | 1.03 | 0.496 | 0.504 | 0.496 | 0.42 | 0.306 | 0.26 | 0.237 | 0.261 | 0.253 | 0.18 | 0.586 |
| SK-LU-1 | 0.717 | 0.786 | 0.817 | 0.757 | 0.289 | 0.924 | 1.07 | 1.08 | 1.01 | 0.382 | 0.59 | 0.653 | 0.68 | 0.467 | 0.425 | 0.469 | 0.53 | 0.508 | 0.367 | 0.855 |
